Reference: patent publication US20240228488A1 (TAKEDA PHARMACEUTICAL COMPANY LIMITED, priority 2021, published 2024)

Molecular target: human activated kallikrein enzyme (Homo sapiens, UniProt P03952)
Assay: Plasma kallikrein inhibition, fluorogenic PFR-AMC substrate, 500 pM activated kallikrein format
Assay type: biochemical
Settings: 500 pM activated kallikrein, 300 uM PFR-AMC, 30 min preincubation, 10 min reaction; read-out: Primary Dose Response Assay: Average EC50
Summary of the method: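 High-enzyme format of the fluorogenic peptide assay, with EC50 taken from AMC signal: 500 pM activated kallikrein, 300 uM Pro-Phe-Arg-AMC, 30 min compound preincubation and 10 min reaction, all at room temperature, pH 7.5.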

Sequence of human activated kallikrein enzyme (P03952 391-638 limits assumed): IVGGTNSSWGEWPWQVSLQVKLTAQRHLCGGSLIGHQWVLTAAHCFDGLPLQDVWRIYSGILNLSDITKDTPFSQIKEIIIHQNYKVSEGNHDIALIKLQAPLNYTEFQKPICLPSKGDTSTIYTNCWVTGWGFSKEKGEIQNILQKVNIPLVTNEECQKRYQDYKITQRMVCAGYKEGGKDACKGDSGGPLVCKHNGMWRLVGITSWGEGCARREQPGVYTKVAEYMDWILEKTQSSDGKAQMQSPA
Sequence of human activated kallikrein enzyme (P03952 20-390 partner limits assumed): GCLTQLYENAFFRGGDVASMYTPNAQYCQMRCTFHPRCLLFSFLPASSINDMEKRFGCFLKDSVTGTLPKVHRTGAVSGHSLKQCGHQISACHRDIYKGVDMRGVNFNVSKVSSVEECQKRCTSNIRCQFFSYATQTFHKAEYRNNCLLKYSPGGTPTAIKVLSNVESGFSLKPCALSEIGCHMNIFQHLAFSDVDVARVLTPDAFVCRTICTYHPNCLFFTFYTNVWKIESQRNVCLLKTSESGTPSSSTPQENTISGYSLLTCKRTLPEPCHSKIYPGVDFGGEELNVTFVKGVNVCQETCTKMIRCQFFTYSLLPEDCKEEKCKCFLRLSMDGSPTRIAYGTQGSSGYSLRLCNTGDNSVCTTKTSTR

EC50 | Structure (SMILES)
1 to 10 nM | COC(=O)c1cc(C2CC2)cn2cc(CNc3cc(NC(=O)[C@H]4C[C@@H]4c4cccc(Cl)c4)ncn3)nc12 [Example I-146, methyl 2-(((6-((1S,2S)-2-(3-chlorophenyl)cyclopropane-1-carboxamido)pyrimidin-4-yl)amino)methyl)-6-cyclopropylimidazo[1,2-a]pyridine-8-carboxylate]
10 to 100 nM | O=C(Nc1cc(NCc2cn3cc(C4CC4)cc(OCc4ccccc4)c3n2)ncn1)[C@H]1C[C@@H]1c1cccc(Cl)c1 [Example I-148, (1S,2S)-N-(6-(((8-(benzyloxy)-6-cyclopropylimidazo[1,2-a]pyridin-2-yl)methyl)amino)pyrimidin-4-yl)-2-(3-chlorophenyl)cyclopropane-1-carboxamide]
1 to 10 nM | O=C1CN(c2cc(C3CC3)cn3cc(CNc4cc(NC(=O)[C@H]5C[C@@H]5c5cccc(Cl)c5)ncn4)nc23)CCN1 [Example I-149, (1S,2S)-2-(3-chlorophenyl)-N-(6-(((6-cyclopropyl-8-(3-oxopiperazin-1-yl)imidazo[1,2-a]pyridin-2-yl)methyl)amino)pyrimidin-4-yl)cyclopropane-1-carboxamide]
10 to 100 nM | COc1ncccc1-c1cc(C2CC2)cn2cc(CNc3cc(NC(=O)[C@H]4C[C@@H]4c4cccc(Cl)c4)ncn3)nc12 [Example I-150, (1S,2S)-2-(3-chlorophenyl)-N-(6-(((6-cyclopropyl-8-(2-methoxypyridin-3-yl)imidazo[1,2-a]pyridin-2-yl)methyl)amino)pyrimidin-4-yl)cyclopropane-1-carboxamide]
10 to 100 nM | O=C(Nc1cc(NCc2nc3ccc(C4CC4)cn3c2F)ncn1)[C@H]1C[C@@H]1c1cccc(Cl)c1 [Example I-152, (1S,2S)-2-(3-chlorophenyl)-N-(6-(((6-cyclopropyl-3-fluoroimidazo[1,2-a]pyridin-2-yl)methyl)amino)pyrimidin-4-yl)cyclopropane-1-carboxamide]
1 to 10 nM | O=C(Nc1cc(NCc2cn3cc(C4CC4)cc(N4CCOCC4)c3n2)ncn1)[C@H]1C[C@@H]1c1cccc(Cl)c1 [Example I-154, (1S,2S)-2-(3-chlorophenyl)-N-(6-(((6-cyclopropyl-8-morpholinoimidazo[1,2-a]pyridin-2-yl)methyl)amino)pyrimidin-4-yl)cyclopropane-1-carboxamide]
100 to 1000 nM | CC(C)(C)OC(=O)Nc1cc(C2CC2)cn2cc(CNc3cc(NC(=O)[C@H]4C[C@@H]4c4cccc(Cl)c4)ncn3)nc12 [Example I-156, tert-butyl (2-(((6-((15,2S)-2-(3-chlorophenyl)cyclopropane-1-carboxamido)pyrimidin-4-yl)amino)methyl)-6-cyclopropylimidazo[1,2-a]pyridin-8-yl)carbamate]
100 to 1000 nM | O=C(Nc1cc(NCc2cn3cc(C4CC4)cc(N4CCCC4C(F)(F)F)c3n2)ncn1)[C@H]1C[C@@H]1c1cccc(Cl)c1 (stereo partly drawn) [Example I-158, (1S,2S)-2-(3-chlorophenyl)-N-(6-(((6-cyclopropyl-8-(2-(trifluoromethyl)pyrrolidin-1-yl)imidazo[1,2-a]pyridin-2-yl)methyl)amino)pyrimidin-4-yl)cyclopropane-1-carboxamide]
10 to 100 nM | CC(C)c1ccc2nc(CNc3cc(NC(=O)[C@H]4C[C@@H]4c4cccc(Cl)c4)ncn3)cn2c1 [Example I-160, (1S,2S)-2-(3-chlorophenyl)-N-(6-(((6-isopropylimidazo[1,2-a]pyridin-2-yl)methyl)amino)pyrimidin-4-yl)cyclopropane-1-carboxamide]
1 to 10 nM | CN1CC(=O)N(c2cc(C3CC3)cn3cc(CNc4cc(NC(=O)[C@H]5C[C@@H]5c5cccc(Cl)c5)ncn4)nc23)C1=O [Example I-171, (1S,2S)-2-(3-chlorophenyl)-N-(6-(((6-cyclopropyl-8-(3-methyl-2,5-dioxoimidazolidin-1-yl)imidazo[1,2-a]pyridin-2-yl)methyl)amino)pyrimidin-4-yl)cyclopropane-1-carboxamide]
> 6000 nM | O=C([C@H]1C[C@@H]1c1cccc(Cl)c1)N(O)c1cc(NCc2cn3cc(C4CC4)ccc3n2)ncn1 [Example I-175, (1S,2S)-2-(3-chlorophenyl)-N-(6-(((6-cyclopropylimidazo[1,2-a]pyridin-2-yl)methyl)amino)pyrimidin-4-yl)-N-hydroxycyclopropane-1-carboxamide]
10 to 100 nM | O=C(Nc1cc(NCc2cn3cc(C4CC4)cc(N4CCN5CC(F)(F)CC5C4)c3n2)ncn1)[C@H]1C[C@@H]1c1cccc(Cl)c1 (stereo partly drawn) [Example I-197, (1S,2S)-2-(3-chlorophenyl)-N-(6-(((6-cyclopropyl-8-(7,7-difluorohexahydropyrrolo[1,2-a]pyrazin-2(1H)-yl)imidazo[1,2-a]pyridin-2-yl)methyl)amino)pyrimidin-4-yl)cyclopropane-1-carboxamide]
1 to 10 nM | O=C(Nc1cc(NCc2cn3cc(C4CC4)cc(N4CCN(C5CC5)CC4)c3n2)ncn1)[C@H]1C[C@@H]1c1cccc(Cl)c1 [Example I-201, (1S,2S)-2-(3-chlorophenyl)-N-(6-(((6-cyclopropyl-8-(4-cyclopropylpiperazin-1-yl)imidazo[1,2-a]pyridin-2-yl)methyl)amino)pyrimidin-4-yl)cyclopropane-1-carboxamide]
10 to 100 nM | O=C(Nc1cc(NCc2cn3cc(Cl)ccc3n2)ncn1)[C@H]1C[C@@H]1c1cccc(Cl)c1 [Example I-203, (1S,2S)-N-(6-(((6-chloroimidazo[1,2-a]pyridin-2-yl)methyl)amino)pyrimidin-4-yl)-2-(3-chlorophenyl)cyclopropane-1-carboxamide]
10 to 100 nM | CN(C)c1ccc2nc(CNc3cc(NC(=O)[C@H]4C[C@@H]4c4cccc(Cl)c4)ncn3)cn2c1 [Example I-205, (1S,2S)-2-(3-chlorophenyl)-N-(6-(((6-(dimethylamino)imidazo[1,2-a]pyridin-2-yl)methyl)amino)pyrimidin-4-yl)cyclopropane-1-carboxamide]
10 to 100 nM | CC(C)(C)OC(=O)N1CC(c2cc(C3CC3)cn3cc(CNc4ccnc(NC(=O)[C@H]5C[C@@H]5c5cccc(Cl)c5)c4)nc23)C1 [Example I-226, tert-butyl 3-(2-(((2-((1S,2S)-2-(3-chlorophenyl)cyclopropane-1-carboxamido)pyridin-4-yl)amino)methyl)-6-cyclopropylimidazo[1,2-a]pyridin-8-yl)azetidine-1-carboxylate]
1 to 10 nM | O=C(Nc1cc(NCc2cn3cc(C4CC4)cc(N4CCN5CC(F)(F)CC5C4)c3n2)ccn1)[C@H]1C[C@@H]1c1cccc(Cl)c1 (stereo partly drawn) [Example I-230, (1S,2S)-2-(3-chlorophenyl)-N-(4-(((6-cyclopropyl-8-(7,7-difluorohexahydropyrrolo[1,2-a]pyrazin-2(1H)-yl)imidazo[1,2-a]pyridin-2-yl)methyl)amino)pyridin-2-yl)cyclopropane-1-carboxamide]
< 1 nM | CCOC(=O)Cc1cc(C2CC2)cn2cc(CNc3ccnc(NC(=O)[C@H]4C[C@@H]4c4cccc(Cl)c4)c3)nc12 [Example I-241, ethyl 2-(2-(((2-((1S,2S)-2-(3-chlorophenyl)cyclopropane-1-carboxamido)pyridin-4-yl)amino)methyl)-6-cyclopropylimidazo[1,2-a]pyridin-8-yl)acetate]
< 1 nM | Cc1ccnc([C@H]2C[C@@H]2C(=O)Nc2cc(N[C@H](C)c3cn4cc(C5CC5)cc(N5CC6(CN(C)C6)N(C)C5=O)c4n3)ncn2)n1 [Example I-245, (1S,2S)-N-(6-(((R)-1-(6-cyclopropyl-8-(2,5-dimethyl-6-oxo-2,5,7-triazaspiro[3.4]octan-7-yl)imidazo[1,2-a]pyridin-2-yl)ethyl)amino)pyrimidin-4-yl)-2-(4-methylpyrimidin-2-yl)cyclopropane-1-carboxamide]
< 1 nM | Cc1cc(NC(=O)[C@H]2C[C@@H]2c2nccc(C)n2)cc(N[C@H](C)c2cn3cc(C4CC4)cc(N4CC(=O)N(C)C4=O)c3n2)n1 [Example I-246, (1S,2S)-N-(2-(((R)-1-(6-cyclopropyl-8-(3-methyl-2,4-dioxoimidazolidin-1-yl)imidazo[1,2-a]pyridin-2-yl)ethyl)amino)-6-methylpyridin-4-yl)-2-(4-methylpyrimidin-2-yl)cyclopropane-1-carboxamide]
1 to 10 nM | Cc1ccnc([C@H]2C[C@@H]2C(=O)Nc2cc(NCc3cn4cc(C5CC5)cc(N5CC(=O)N(C)C5=O)c4n3)c(Cl)nn2)n1 [Example I-247, (1S,2S)-N-(6-chloro-5-(((6-cyclopropyl-8-(3-methyl-2,4-dioxoimidazolidin-1-yl)imidazo[1,2-a]pyridin-2-yl)methyl)amino)pyridazin-3-yl)-2-(4-methylpyrimidin-2-yl)cyclopropane-1-carboxamide]
> 6000 nM | O=C(Nc1cc(N2C[C@H](O)C[C@@H]2c2cn3cc(C4CC4)ccc3n2)ncn1)[C@H]1C[C@@H]1c1cccc(Cl)c1 [Example I-250, (1S,2S)-2-(3-chlorophenyl)-N-(6-((2R,4R)-2-(6-cyclopropylimidazo[1,2-a]pyridin-2-yl)-4-hydroxypyrrolidin-1-yl)pyrimidin-4-yl)cyclopropane-1-carboxamide]
10 to 100 nM | O=C(Nc1cc(N2CCC[C@@H]2c2cn3cc(C4CC4)ccc3n2)ncn1)[C@H]1C[C@@H]1c1cccc(Cl)c1 [Example I-251, (1S,2S)-2-(3-chlorophenyl)-N-(6-((R)-2-(6-cyclopropylimidazo[1,2-a]pyridin-2-yl)pyrrolidin-1-yl)pyrimidin-4-yl)cyclopropane-1-carboxamide]
< 1 nM | CN1CCN(c2cc(Cl)cn3cc(CNc4ccnc(NC(=O)[C@H]5C[C@@H]5c5cccc(Cl)c5)c4)nc23)CC1 [Example I-252, (1S,2S)-N-(4-(((6-chloro-8-(4-methylpiperazin-1-yl)imidazo[1,2-a]pyridin-2-yl)methyl)amino)pyridin-2-yl)-2-(3-chlorophenyl)cyclopropane-1-carboxamide]
